We go through one molecule from patent publication US20260256742A1, “ANDROGEN RECEPTOR ANTAGONISTS FOR THE TREATMENT OF PATIENTS WITH BIOCHEMICAL RECURRENCE OF HORMONE SENSITIVE PROSTATE CANCER” (BAYER CONSUMER CARE AG, priority 2023, published 2026).

A short description of data set [1]: transgenic mouse carcinogenicity study. The format is in vivo, 001178-T (hemizygous) RasH 2 mice. The conditions noted are these: male and female RasH 2 mice, up to 500 mg/kg/dose BID, at least 26 weeks.
For data set [2] the following is noted: dog, in vivo.
Data set [3] deals with T1, breast cancer resistance protein (BCRP) (Homo sapiens, UniProt Q9UNQ0).
T1 sequence (Q9UNQ0 1-655): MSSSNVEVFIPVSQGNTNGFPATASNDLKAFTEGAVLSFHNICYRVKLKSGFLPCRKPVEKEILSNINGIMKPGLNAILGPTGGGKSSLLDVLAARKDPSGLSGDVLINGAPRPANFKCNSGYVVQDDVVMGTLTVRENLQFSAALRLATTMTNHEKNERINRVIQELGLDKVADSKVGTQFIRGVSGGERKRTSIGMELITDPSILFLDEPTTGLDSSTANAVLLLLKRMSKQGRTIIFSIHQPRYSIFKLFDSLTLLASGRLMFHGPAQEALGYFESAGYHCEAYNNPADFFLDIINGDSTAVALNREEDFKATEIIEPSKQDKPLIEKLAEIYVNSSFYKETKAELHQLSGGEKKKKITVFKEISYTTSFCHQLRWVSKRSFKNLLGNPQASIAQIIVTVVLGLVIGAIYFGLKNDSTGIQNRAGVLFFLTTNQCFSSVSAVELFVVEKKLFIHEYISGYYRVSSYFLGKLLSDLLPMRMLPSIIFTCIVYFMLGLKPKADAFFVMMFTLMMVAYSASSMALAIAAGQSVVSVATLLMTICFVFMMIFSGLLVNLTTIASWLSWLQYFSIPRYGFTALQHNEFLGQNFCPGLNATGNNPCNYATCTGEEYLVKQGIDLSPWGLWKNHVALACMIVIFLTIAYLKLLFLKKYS
The settings on record: cited from earlier work.

The test system of data set [4] is CYP1A2. The settings on record: in vitro; cited from earlier work.
For data set [5], the target named is T2, organic anion transporter (OAT)3 (Homo sapiens, UniProt Q8TCC7).
T2 sequence (Q8TCC7 1-542): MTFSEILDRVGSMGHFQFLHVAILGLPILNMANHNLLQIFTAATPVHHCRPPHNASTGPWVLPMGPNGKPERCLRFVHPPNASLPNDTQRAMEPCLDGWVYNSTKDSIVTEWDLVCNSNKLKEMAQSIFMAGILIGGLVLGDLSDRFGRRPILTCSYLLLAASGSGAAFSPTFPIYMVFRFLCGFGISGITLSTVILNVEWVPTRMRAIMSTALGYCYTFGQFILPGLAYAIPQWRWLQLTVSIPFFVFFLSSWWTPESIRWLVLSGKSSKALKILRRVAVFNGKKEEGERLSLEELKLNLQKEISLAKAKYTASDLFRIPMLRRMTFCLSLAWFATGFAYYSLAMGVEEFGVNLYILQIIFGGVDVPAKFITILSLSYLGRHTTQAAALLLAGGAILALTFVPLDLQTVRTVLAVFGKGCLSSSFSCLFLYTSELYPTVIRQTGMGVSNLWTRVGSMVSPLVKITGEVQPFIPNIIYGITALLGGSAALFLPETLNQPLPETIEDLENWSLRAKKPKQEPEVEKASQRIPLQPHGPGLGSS
The conditions noted are these: in vitro; cited from earlier work.

Data set [6] concerns the target T3, multidrug and toxin extrusion (MATE)1 (Homo sapiens, UniProt Q96FL8).
T3 sequence (Q96FL8 1-570): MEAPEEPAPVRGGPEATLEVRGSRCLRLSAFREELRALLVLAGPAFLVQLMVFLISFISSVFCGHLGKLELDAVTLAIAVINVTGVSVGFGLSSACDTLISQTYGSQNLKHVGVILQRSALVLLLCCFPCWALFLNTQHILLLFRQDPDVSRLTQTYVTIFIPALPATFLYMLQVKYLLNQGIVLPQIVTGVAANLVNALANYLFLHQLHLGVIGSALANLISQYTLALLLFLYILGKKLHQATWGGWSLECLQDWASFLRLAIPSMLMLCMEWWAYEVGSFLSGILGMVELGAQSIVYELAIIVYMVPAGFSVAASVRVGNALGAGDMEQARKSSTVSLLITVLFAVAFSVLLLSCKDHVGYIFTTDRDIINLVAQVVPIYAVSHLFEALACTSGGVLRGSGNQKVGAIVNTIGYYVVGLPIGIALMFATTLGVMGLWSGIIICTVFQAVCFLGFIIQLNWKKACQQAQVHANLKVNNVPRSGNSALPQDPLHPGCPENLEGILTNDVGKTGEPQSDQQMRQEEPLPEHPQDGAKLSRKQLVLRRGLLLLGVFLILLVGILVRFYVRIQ
The conditions noted are these: in vitro; cited from earlier work.

For data set [7], the target named is T4, OATP1B3 (Homo sapiens, UniProt Q9NPD5).
T4 sequence (Q9NPD5 1-702): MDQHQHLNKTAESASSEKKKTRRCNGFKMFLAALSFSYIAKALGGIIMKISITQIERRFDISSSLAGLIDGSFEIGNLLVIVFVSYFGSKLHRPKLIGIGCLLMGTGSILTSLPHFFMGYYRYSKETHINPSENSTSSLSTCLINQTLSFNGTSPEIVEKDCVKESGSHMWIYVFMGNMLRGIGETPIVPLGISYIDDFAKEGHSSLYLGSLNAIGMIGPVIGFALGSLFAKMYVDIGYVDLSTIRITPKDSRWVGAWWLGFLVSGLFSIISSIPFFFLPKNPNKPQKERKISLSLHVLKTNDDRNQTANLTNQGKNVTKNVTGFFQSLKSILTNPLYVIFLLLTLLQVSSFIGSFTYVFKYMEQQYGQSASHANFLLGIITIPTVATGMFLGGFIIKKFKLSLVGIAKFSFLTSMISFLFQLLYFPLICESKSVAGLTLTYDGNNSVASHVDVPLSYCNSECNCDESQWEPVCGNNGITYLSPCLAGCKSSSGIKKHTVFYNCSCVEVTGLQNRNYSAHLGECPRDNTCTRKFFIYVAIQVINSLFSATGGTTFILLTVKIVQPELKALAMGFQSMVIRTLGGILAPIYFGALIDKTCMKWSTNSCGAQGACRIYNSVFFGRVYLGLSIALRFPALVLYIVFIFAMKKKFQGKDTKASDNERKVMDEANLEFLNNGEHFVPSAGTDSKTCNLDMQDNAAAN
The conditions noted are these: in vitro; cited from earlier work.

For data set [8] the following is noted: cited from earlier work.
Data set [9] deals with nmCRPC. The settings on record: in combination with ADT, patients with nmCRPC; cited from earlier work.

On to `CC(O)c1cc(C(=O)N[C@@H](C)Cn2ccc(-c3ccc(C#N)c(Cl)c3)n2)[nH]n1` (stereo partly shown) [Darolutamide], for which, in data set [1], the carcinogenic potential entry is on record as “no carcinogenic potential”. Further, in [2], the “additional changes to reproductive tissues” value was “testicular hypospermia, seminiferous tubule dilatation and degeneration”; the “deaths during the treatment period” value is given as “No deaths occurred”; the other adverse effects result is “No other adverse effects were observed”; the “reversibility of changes in the male reproductive organs” value is listed as “reversed or partially resolved”. In addition, the “substrate for BCRP” value in [3] is “substrate”. For the same molecule, the “induction of CYP1A2 activity” value in data set [4] is reported as “no relevant induction”. For the same molecule, in [5], the “inhibition of OAT3-mediated transport” value is “observed”. For the same molecule, in data set [6], the “inhibition of MATE1-mediated transport” value is “observed”. Moreover, the “inhibition of OATP1B3-mediated transport” value in [7] is “observed”. Moreover, the “effect of co-administration on CYP3A4/P-gp substrates” value in data set [8] (Phase I) is given as “no effect or only minor effects”. In data set [8] (because of BCRP and probably also OATPB1/OATPB3 inhibition), the “increase of rosuvastatin exposure with darolutamide” value was 5.2 fold. For the same molecule, the “increase of darolutamide exposure” value in data set [8] (co-administered itraconazole, Phase I) is on record as 1.75 fold. In addition, the “decrease of darolutamide exposure” value in data set [8] (with rifampicin, Phase I) is given as 72%. For the same molecule, in data set [9], the “metastatic free survival (MFS)” value is listed as “significantly increased” and the “overall survival (OS)” value was “significantly increased”.
